Measurements as given in PMC10294875, “Ether Derivatives of Naringenin and Their Oximes as Factors Modulating Bacterial Adhesion” (Antibiotics, 2023).
Values after ≈ are worked out from the molar mass of the structure shown.

Columns and labels:
3T3-L1 cell line = assay: SRB assay, antiproliferative activity against 3T3-L1; format: cell-based, mouse; conditions: for IC50: Mus musculus; for cytotoxic / antiproliferative effect against 3T3-L1 (in words): SRB, tested concentration range 1–100 µg/mL
Method: (§1) The human adenocarcinoma cell line, HT-29 (ATCC HTB-38), was cultured in αMEM medium (IITD PAN) supplemented with 10% fetal bovine serum, FBS (Sigma-Aldrich, Taufkirchen, Germany), 100 U/mL penicillin, 100 µg/mL streptomycin antibiotic solution (Sigma-Aldrich, Taufkirchen, Germany), and 2 mM glutamine solution (Sigma-Aldrich, Taufkirchen, Germany). Cells from less than 20 passages were used for the study. In turn, preadipocytes from mouse embryos with the morphology of fibroblast cells, line 3T3-L1 (ATCC CL-173), were cultured in DMEM high-glucose medium (Life Technologies Corporation, Carlsbad, CA, USA) with the same supplements as above. Cells from less than 14 passages were used for the study. Both tested cell lines were grown at 37 °C in 5% CO2.
(§2) The effect of O-alkyl derivatives of naringenin and their oximes on eukaryotic cells was checked using a slightly modified SRB test described earlier. Firstly, HT-29 (1 × 10^5 cells/mL) and 3T3-L1 (5 × 10^4 cells/mL) cell lines were incubated in adherent microtiter plates under the conditions described above. The cells were then treated for 2 h with the tested compounds 1a–10a and 1b–10b at concentrations of 1, 5, 10, 25, 50, 75, and 100 µg/mL each. After this time, the medium was removed and replaced with one containing 50% (wt/vol) trichloroacetic acid (TCA; Sigma-Aldrich, Taufkirchen, Germany). Following 1 h of incubation at 4 °C, the plate was rinsed with water, and then an acidic solution of 0.4% sulforhodamine B (SRB) (Sigma-Aldrich, Taufkirchen, Germany), was added to the dried wells and incubated in the dark for half an hour. At the end of this time, the SRB solution was replaced by 1% (vol/vol) acetic acid, and the stained protein precipitate was dissolved in 10 mM Tris base solution (pH 10.5). Absorbance was measured at 560 nm in a plate reader (GloMax Discover Microplate Reader, Promega).
(§3) The cytotoxic effect of O-alkyl derivatives of naringenin and their oximes on eukaryotic cells was expressed as the concentration of the tested compounds at which 50% growth inhibition of the tested cell lines was observed. Values were presented in the form of the survival index (SI)–IC50. All determinations were repeated in three independent experiments, each performed in three technical replicates. Moreover, the effect of DMSO (Sigma-Aldrich, Taufkirchen, Germany), the solvent present in all the initial solutions of the tested compounds, on the growth of the cell lines used in the study was also verified.

HT-29 cell line = assay: SRB assay, antiproliferative activity against HT-29; format: cell-based, human; conditions: for IC50: Homo sapiens; for cytotoxic / antiproliferative effect against HT-29 (in words): SRB, tested concentration range 1–100 µg/mL
Method: as §1, §2, §3

[1] = system: Escherichia coli K12 (ATCC 10798); assay: Adhesion assay, static conditions: E. coli to 3T3-L1 cell line; format: cell-based
Method: (§4) The study used two reference strains, Escherichia coli K12 (ATCC 10798) and Enterococcus faecalis (ATCC 29212), obtained from the American Type Culture Collection. Both strains were stored in trypticase soy broth (TSB; OXOID, Basingstoke, UK) with the addition of 30% glycerol at −70 °C in the museum resources of the Department of Microbiology at the Wroclaw Medical University.
(§5) For studies determining the interaction of bacteria with eukaryotic cells, suspensions of the tested strains were prepared in Luria broth (LB, Becton, Dickinson and Company, USA) medium with a bacterial density of 6 × 10^8 CFU/mL.
(§6) The adhesion ability of the tested bacterial strains to HT-29 and 3T3-L1 cell lines was determined by an in vitro adhesion assay as described previously. Eukaryotic cells were infected with prokaryotic cells in the presence of the examined compounds in pre-selected concentrations at an MOI (multiplicity of infection) ratio of 50. Cells were exposed to the tested strains and compounds for 2 h. After this time, unbound bacteria were removed by washing with PBS (Life Technologies Corporation, Carlsbad, CA, USA). The lysates acquired by cell lysis (0.5% Triton X-100 in LB): 90 min, 37 °C, 5% CO2 atmosphere, were then seeded onto TSA and MC media for E. faecalis and E. coli, respectively. The assays were performed in at least three independent experiments (cells from subsequent passages), each in triplicate. A control without tested compounds was set for each strain.

[2] = system: Enterococcus faecalis (ATCC 29212); assay: Adhesion assay, static conditions: E. faecalis to 3T3-L1 cell line; format: cell-based
Method: as §4, §5, §6

[3] = system: Escherichia coli K12 (ATCC 10798); assay: Adhesion assay, static conditions: E. coli to HT-29 cell line; format: cell-based
Method: as §4, §5, §6

[4] = 2 h incubation, SRB assay, 3T3-L1
[5] = 2 h incubation, SRB assay, HT-29

## CCCCCCOc1cc(O)c2c(c1)O[C@H](c1ccc(O)cc1)CC2=NO [Compound 1b, 7-O-hexylnaringenin oxime]
3T3-L1 cell line; [4]
  IC50: 35 mg/L (≈ 94.2 µM)
HT-29 cell line; [5]
  IC50: 38.4 mg/L (≈ 103 µM)
HT-29 cell line
  cytotoxic / antiproliferative effect against HT-29 (in words): cytotoxic effects
[1]; 1 µg/mL
  attachment of E. coli to 3T3-L1 decreased to: 63%
[1]; 25 µg/mL
  adherence of E. coli to 3T3-L1: practically not observed

## CCCCCCCOc1cc(O)c2c(c1)O[C@H](c1ccc(O)cc1)CC2=O [Compound 3a, 7-O-heptylnaringenin]
3T3-L1 cell line; [4]
  IC50: 25.6 mg/L (≈ 69 µM)
3T3-L1 cell line
  cytotoxic / antiproliferative effect against 3T3-L1 (in words): cytotoxic activity
HT-29 cell line; [5]
  IC50: 28.7 mg/L (≈ 77.5 µM)
HT-29 cell line
  cytotoxic / antiproliferative effect against HT-29 (in words): antiproliferative activity

## CCCCCCCOc1ccc([C@@H]2CC(=O)c3c(O)cc(OCCCCCCC)cc3O2)cc1 [Compound 4a, 7,4’-di-O-heptylnaringenin]
3T3-L1 cell line; [4]
  IC50: > 100 mg/L
3T3-L1 cell line
  cytotoxic / antiproliferative effect against 3T3-L1 (in words): no effect
HT-29 cell line; [5]
  IC50: > 100 mg/L
HT-29 cell line
  cytotoxic / antiproliferative effect against HT-29 (in words): no effect

## CCCCCCOc1ccc([C@@H]2CC(=O)c3c(O)cc(OCCCCCC)cc3O2)cc1 [Compound 2a, 7,4’-di-O-hexylnaringenin]
3T3-L1 cell line; [4]
  IC50: > 100 mg/L
3T3-L1 cell line
  cytotoxic / antiproliferative effect against 3T3-L1 (in words): no effect
HT-29 cell line; [5]
  IC50: > 100 mg/L
HT-29 cell line
  cytotoxic / antiproliferative effect against HT-29 (in words): no effect

## CCCCCCCCCCCOc1ccc([C@@H]2CC(=NO)c3c(O)cc(OCCCCCCCCCCC)cc3O2)cc1 [Compound 10b, 7,4’-di-O-undecylnaringenin oxime]
3T3-L1 cell line; [4]
  IC50: > 100 mg/L
HT-29 cell line; [5]
  IC50: 48.2 mg/L (≈ 80.9 µM)

## CCCCCCCCCOc1cc(O)c2c(c1)O[C@H](c1ccc(O)cc1)CC2=O [Compound 7a, 7-O-nonylnaringenin]
[2]
  effect on adhesion of E. faecalis to 3T3-L1 (in words): often actually limited the attachment
3T3-L1 cell line; [4]
  IC50: 22.2 mg/L (≈ 55.8 µM)
3T3-L1 cell line
  cytotoxic / antiproliferative effect against 3T3-L1 (in words): cytotoxic activity
HT-29 cell line; [5]
  IC50: 46.7 mg/L (≈ 117 µM)
HT-29 cell line
  cytotoxic / antiproliferative effect against HT-29 (in words): antiproliferative activity

## CCCCCCCCCOc1ccc([C@@H]2CC(=O)c3c(O)cc(OCCCCCCCCC)cc3O2)cc1 [Compound 8a, 7,4’-di-O-nonylnaringenin]
3T3-L1 cell line; [4]
  IC50: > 100 mg/L
3T3-L1 cell line
  cytotoxic / antiproliferative effect against 3T3-L1 (in words): no effect
HT-29 cell line; [5]
  IC50: > 100 mg/L
HT-29 cell line
  cytotoxic / antiproliferative effect against HT-29 (in words): no effect

## CCCCCCCCOc1cc(O)c2c(c1)O[C@H](c1ccc(O)cc1)CC2=NO [Compound 5b, 7-O-octylnaringenin oxime]
3T3-L1 cell line; [4]
  IC50: 49.9 mg/L (≈ 125 µM)
HT-29 cell line; [5]
  IC50: 49.8 mg/L (≈ 125 µM)
HT-29 cell line
  cytotoxic / antiproliferative effect against HT-29 (in words): cytotoxic effects

## CCCCCCCCCOc1cc(O)c2c(c1)O[C@H](c1ccc(O)cc1)CC2=NO [Compound 7b, 7-O-nonylnaringenin oxime]
[2]
  effect on adhesion of E. faecalis to 3T3-L1 (in words): often actually limited the attachment
3T3-L1 cell line; [4]
  IC50: 41.6 mg/L (≈ 101 µM)
HT-29 cell line; [5]
  IC50: 57.8 mg/L (≈ 140 µM)
HT-29 cell line
  cytotoxic / antiproliferative effect against HT-29 (in words): cytotoxic effects

## CCCCCCCOc1cc(O)c2c(c1)O[C@H](c1ccc(O)cc1)CC2=NO [Compound 3b, 7-O-heptylnaringenin oxime]
3T3-L1 cell line; [4]
  IC50: 32.1 mg/L (≈ 83.3 µM)
HT-29 cell line; [5]
  IC50: 29.1 mg/L (≈ 75.6 µM)
HT-29 cell line
  cytotoxic / antiproliferative effect against HT-29 (in words): cytotoxic effects

## CCCCCCCCCCCOc1cc(O)c2c(c1)O[C@H](c1ccc(O)cc1)CC2=NO [Compound 9b, 7-O-undecylnaringenin oxime]
[2]
  effect on adhesion of E. faecalis to 3T3-L1 (in words): often actually limited the attachment
3T3-L1 cell line; [4]
  IC50: > 100 mg/L
HT-29 cell line; [5]
  IC50: > 100 mg/L

## CCCCCCCOc1ccc([C@@H]2CC(=NO)c3c(O)cc(OCCCCCCC)cc3O2)cc1 [Compound 4b, 7,4’-di-O-heptylnaringenin oxime]
[3]; 25 µg/mL
  adhesion of E. coli to HT-29 higher than in the control: 17 fold
[3]; 50 µg/mL
  adhesion of E. coli to HT-29 higher than in the control: 5 fold
[3]; 1–10 µg/mL or 75–100 µg/mL
  level of adherence of E. coli to HT-29: very low
3T3-L1 cell line; [4]
  IC50: > 100 mg/L
HT-29 cell line; [5]
  IC50: 43.4 mg/L (≈ 89.6 µM)

## CCCCCCCCOc1ccc([C@@H]2CC(=O)c3c(O)cc(OCCCCCCCC)cc3O2)cc1 [Compound 6a, 7,4’-di-O-octylnaringenin]
3T3-L1 cell line; [4]
  IC50: > 100 mg/L
3T3-L1 cell line
  cytotoxic / antiproliferative effect against 3T3-L1 (in words): no effect
HT-29 cell line; [5]
  IC50: > 100 mg/L
HT-29 cell line
  cytotoxic / antiproliferative effect against HT-29 (in words): no effect

## CCCCCCCCOc1ccc([C@@H]2CC(=NO)c3c(O)cc(OCCCCCCCC)cc3O2)cc1 [Compound 6b, 7,4’-di-O-octylnaringenin oxime]
3T3-L1 cell line; [4]
  IC50: > 100 mg/L
HT-29 cell line; [5]
  IC50: > 100 mg/L

## CCCCCCOc1ccc([C@@H]2CC(=NO)c3c(O)cc(OCCCCCC)cc3O2)cc1 [Compound 2b, 7,4’-di-O-hexylnaringenin oxime]
3T3-L1 cell line; [4]
  IC50: > 100 mg/L
HT-29 cell line; [5]
  IC50: > 100 mg/L

## CCCCCCCCCCCOc1cc(O)c2c(c1)O[C@H](c1ccc(O)cc1)CC2=O [Compound 9a, 7-O-undecylnaringenin]
[2]
  effect on adhesion of E. faecalis to 3T3-L1 (in words): often actually limited the attachment
3T3-L1 cell line; [4]
  IC50: 80.6 mg/L (≈ 189 µM)
3T3-L1 cell line
  cytotoxic / antiproliferative effect against 3T3-L1 (in words): cytotoxic activity
HT-29 cell line; [5]
  IC50: > 100 mg/L

## CCCCCCCCOc1cc(O)c2c(c1)O[C@H](c1ccc(O)cc1)CC2=O [Compound 5a, 7-O-octylnaringenin]
3T3-L1 cell line; [4]
  IC50: 20.1 mg/L (≈ 52.3 µM)
3T3-L1 cell line
  cytotoxic / antiproliferative effect against 3T3-L1 (in words): cytotoxic activity
HT-29 cell line; [5]
  IC50: 38.4 mg/L (≈ 99.7 µM)
HT-29 cell line
  cytotoxic / antiproliferative effect against HT-29 (in words): antiproliferative activity

## CCCCCCCCCCCOc1ccc([C@@H]2CC(=O)c3c(O)cc(OCCCCCCCCCCC)cc3O2)cc1 [Compound 10a, 7,4’-di-O-undecylnaringenin]
3T3-L1 cell line; [4]
  IC50: > 100 mg/L
3T3-L1 cell line
  cytotoxic / antiproliferative effect against 3T3-L1 (in words): no effect
HT-29 cell line; [5]
  IC50: > 100 mg/L
HT-29 cell line
  cytotoxic / antiproliferative effect against HT-29 (in words): no effect
[1]; regardless of the concentration used
  bacterial adhesion disturbed (decrease), E. coli to 3T3-L1: ≈ 2 fold

## CCCCCCOc1cc(O)c2c(c1)O[C@H](c1ccc(O)cc1)CC2=O [Compound 1a, 7-O-hexylnaringenin]
3T3-L1 cell line; [4]
  IC50: 25.8 mg/L (≈ 72.4 µM)
3T3-L1 cell line
  cytotoxic / antiproliferative effect against 3T3-L1 (in words): cytotoxic activity
HT-29 cell line; HT-29, 1a vs 7a
  IC50 lower than compound 7a (ratio): 1.8 times
HT-29 cell line; [5]
  IC50: 25.4 mg/L (≈ 71.2 µM)
HT-29 cell line
  cytotoxic / antiproliferative effect against HT-29 (in words): antiproliferative activity

## ON=C1C[C@@H](c2ccc(O)cc2)Oc2cc(O)cc(O)c21 [NGOX, naringenin oxime, reference compound]
3T3-L1 cell line; [4]
  IC50 3T3-L1: >100 mg/L
HT-29 cell line; [5]
  IC50 HT-29: >100 mg/L
